Assays:
Assay type in all cases: cell-based
Whole human saliva [1] = test: In vitro malodor study: microbial growth by OD610; details: pooled whole human saliva 2% in growth medium, incubated overnight, n=6
Protocol: (§1) An in vitro malodor study was conducted to evaluate the effect of various combinations of inulin and xylitol with zinc on oral malodor. Malodor is a combination of hydrogen sulfide and other volatile compounds. Microbial growth as measured by OD610, and fermentation, as measured by pH (confounding variables that impact oral malodor) were also evaluated.
(§2) Whole human saliva was collected from four donors, pooled and suspended in growth medium at a 2% final concentration. Stock, simple solutions of inulin, xylitol, and zinc citrate were prepared in growth medium and incorporated according to the experiment design specified in Table 3 (below). Treatment suspensions were incubated overnight in sterilized headspace vials.
(§3) Malodor (i.e., hydrogen sulfide and other volatile compounds) in the culture vial headspace was quantified using validated procedures on Voice200ultra SIFT-MS (Syft Technologies, Christchurch, New Zealand). Following SIFT-MS analysis, microbial growth was quantified using optical density at λ=610 nm.

Whole human saliva [2] = test: In vitro malodor study: fermentation measured by pH; details: pooled whole human saliva 2% in growth medium, incubated overnight, n=6
Protocol: as §1, §2
The pH was measured using a standard pH meter by following validated procedures. Statistical significance of differences for all parameters was determined using one-way ANOVA test at 95% confidence level with a Tukey pairwise comparison test. Microbial growth and pH were used to stratify the treatments for hydrogen sulfide statistical analysis.

Whole human saliva [3] = test: In vitro malodor study: hydrogen sulfide in headspace by SIFT-MS; details: pooled whole human saliva 2% in growth medium, incubated overnight, n=6; groups stratified by growth and pH
Protocol: as §1, §2, §3
Hydrogen sulfide in headspace of salivary inoculum was quantified using SIFT-MS validated procedure.

| Compound | Microbial growth as observed by OD610, Mean (Whole human saliva [1]) | pH, Mean (Whole human saliva [2]) | Hydrogen sulfide in headspace of salivary inoculum, Mean (Whole human saliva [3]) [ppb] |
| --- | --- | --- | --- |
| OC[C@@H](O)[C@H](O)[C@@H](O)CO [Example 4, xylitol] | 0.4182 | 5.9067 | 2243 |
| O=C([O-])CC(O)(CC(=O)[O-])C(=O)[O-].O=C([O-])CC(O)(CC(=O)[O-])C(=O)[O-].[Zn+2].[Zn+2].[Zn+2] [Example 5, zinc citrate] | 0.1407 | 6.5948 | 21.86 |
